Data as given in US20240140963A1, “FUSED TRICYCLIC CYCLIN-DEPENDENT KINASE INHIBITOR, AND PREPARATION METHOD THEREFOR AND PHARMACEUTICAL USE THEREOF” (Tuojie Biotech (Shanghai) Co., Ltd., priority 2021, published 2024).

What was measured:
human PXR = target: T1, human PXR (Homo sapiens, UniProt O75469); assay: PXR induction assay in DPX2 cells (luciferase reporter); type: cell-based
T1 construct: host or cells: DPX2 (HepG2)
T1 sequence (O75469 1-434): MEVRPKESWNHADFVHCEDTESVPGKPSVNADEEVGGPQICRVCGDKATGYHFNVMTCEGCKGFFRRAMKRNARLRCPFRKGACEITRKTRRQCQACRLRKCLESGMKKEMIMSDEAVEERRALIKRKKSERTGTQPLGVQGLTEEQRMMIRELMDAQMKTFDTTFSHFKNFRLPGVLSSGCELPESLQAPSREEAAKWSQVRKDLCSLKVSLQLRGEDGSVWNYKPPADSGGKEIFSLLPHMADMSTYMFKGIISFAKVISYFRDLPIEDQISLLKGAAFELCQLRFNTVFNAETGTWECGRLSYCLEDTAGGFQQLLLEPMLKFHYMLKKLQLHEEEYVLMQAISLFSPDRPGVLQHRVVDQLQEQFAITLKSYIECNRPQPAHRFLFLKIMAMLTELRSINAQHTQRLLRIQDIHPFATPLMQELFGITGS
Protocol: 1. The potential of the test compounds to induce the activity of drug metabolism enzymes by in vitro activating PXR was evaluated.
1) DPX2 (HepG2 cells were stably transfected with the human PXR gene and the fluorescent reporter gene) cells were purchased from Puracyp (Carlsbad, CA).
When covering 80-90% of the bottom of the culture flask, the cells were digested.
4) The cell suspension was transferred to a conical-bottomed centrifuge tube and centrifuged at 120 g for 10 min. The cells were suspended in the plating medium and adjusted to a concentration of 4×10^5 cells/mL. 100 μL of diluted cells were added to each well of a 96-well cell culture plate. The culture plate was placed in an incubator and incubated at 37° C. for 24 h before PXR activation assays.
The final concentration of DMSO was 0.1%. To 1 mL of pre-incubated medium, 1 μL of DMSO was added as a solvent control.
2) The cell culture plate was removed from the incubator, and the medium was discarded. 100 μL of each of the test compounds and positive compound was added to an appropriate well in duplicate, and the cell plate was placed in an incubator and incubated for 24 h.
1) After […] of drug treatment, quantification of PXR activation could be performed on the culture.
2) The CellTiter-Fluor™ cell viability assay kit and the One-Glo luciferase reagent were equilibrated to room temperature. The GF-AFC (10 μL) substrate was added to assay buffer (10 mL) to form 2× reagent, and the reagent was then diluted to 1× with 10 mL of PBS; the ONE-Glo substrate was added to the ONE-Glo luciferase assay buffer.
5) The ONE-Glo reagent was poured into a reagent reservoir, and then 50 μL was transferred to each well using a multi-channel pipette. The reagent was gently and well mixed, and the mixture was incubated and well mixed at room temperature for 5 min. After the incubation, the luminescence value of each well was read using a luminometer.
The luciferase activity was expressed in terms of […], where RLU is the mean luminescence intensity value of two replicates of each concentration of each compound, and RFU is the mean fluorescence intensity of two replicates of each concentration of each compound.
The calculation formula for induction fold: […]

CDK4/cyclin D1 = target: T2, CDK4/cyclin D1 (Homo sapiens, UniProt P11802); assay: CDK4/cyclin D1 kinase activity, mobility shift assay; type: biochemical
T2 construct: purchased ProQinase 0142-0143-1
T2 sequence (P11802 whole entry): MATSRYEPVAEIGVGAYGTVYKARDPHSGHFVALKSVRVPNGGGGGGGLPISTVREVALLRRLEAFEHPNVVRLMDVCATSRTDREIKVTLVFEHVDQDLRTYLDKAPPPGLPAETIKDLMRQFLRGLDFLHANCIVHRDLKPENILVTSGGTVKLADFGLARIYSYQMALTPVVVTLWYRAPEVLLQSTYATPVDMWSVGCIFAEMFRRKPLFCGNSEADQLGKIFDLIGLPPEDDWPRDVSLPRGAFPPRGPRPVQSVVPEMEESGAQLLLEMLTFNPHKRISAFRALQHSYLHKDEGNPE
T2 sequence (P24385 whole entry partner): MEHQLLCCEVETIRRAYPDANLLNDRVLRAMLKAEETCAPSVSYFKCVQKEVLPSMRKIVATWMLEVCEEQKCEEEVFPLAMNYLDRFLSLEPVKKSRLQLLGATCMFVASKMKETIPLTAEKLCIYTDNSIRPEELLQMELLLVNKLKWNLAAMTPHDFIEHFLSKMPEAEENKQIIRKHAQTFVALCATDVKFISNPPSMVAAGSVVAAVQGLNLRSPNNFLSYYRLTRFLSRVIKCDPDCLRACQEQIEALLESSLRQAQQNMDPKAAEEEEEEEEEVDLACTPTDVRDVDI
Protocol: (§1) In vitro CDK kinase activity was tested using a mobility shift assay.
(§2) The IC50 values of the compounds were obtained by fitting using XLFit excel add-in version 5.4.0.8. Fitting formula:
(§3) Y=Bottom+(Top−Bottom)/(1+10^((Log IC50−X)×Hill Slope)). • X: the log value of the compound concentration; Y: the percent inhibition of the compound.

CDK6/cyclin D3 = target: T3, CDK6/cyclin D3 (Homo sapiens, UniProt Q00534); assay: CDK6/cyclin D3 kinase activity, mobility shift assay; type: biochemical
T3 construct: purchased Carna 04-107
T3 sequence (Q00534 whole entry): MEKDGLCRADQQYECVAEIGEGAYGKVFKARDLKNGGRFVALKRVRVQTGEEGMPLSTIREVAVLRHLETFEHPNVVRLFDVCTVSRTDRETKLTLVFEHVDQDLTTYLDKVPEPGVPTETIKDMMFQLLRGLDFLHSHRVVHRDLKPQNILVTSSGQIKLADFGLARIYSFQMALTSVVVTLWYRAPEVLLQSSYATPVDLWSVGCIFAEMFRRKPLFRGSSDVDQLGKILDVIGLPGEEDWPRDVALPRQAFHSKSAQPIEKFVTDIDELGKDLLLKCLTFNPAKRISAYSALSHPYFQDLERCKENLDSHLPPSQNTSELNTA
T3 sequence (P30281 whole entry partner): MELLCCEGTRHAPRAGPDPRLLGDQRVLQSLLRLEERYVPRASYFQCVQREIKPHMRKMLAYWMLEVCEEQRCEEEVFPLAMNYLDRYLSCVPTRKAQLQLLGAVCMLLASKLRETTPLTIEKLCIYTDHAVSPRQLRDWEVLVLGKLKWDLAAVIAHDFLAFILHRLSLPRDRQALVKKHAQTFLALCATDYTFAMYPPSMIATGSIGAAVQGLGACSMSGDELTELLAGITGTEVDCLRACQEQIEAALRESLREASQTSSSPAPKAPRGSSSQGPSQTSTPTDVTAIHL
Protocol: as §1, §2, §3

[1] = compound concentration 0.123 μM

C[C@@H]1COc2c(-c3nc(N[C@@H]4CCOC[C@H]4O)ncc3Cl)cc(F)c3nc(C(C)(C)O)n1c23 (single isomer, unassigned) [Isomer 2 with a retention time of 1.887 min in Example 4]
Induction fold (human PXR; [1]): 0.99
Induction fold (human PXR; compound concentration 10.0 μM): 1.48

Cc1nc2c(F)cc(-c3nc(N[C@@H]4CCN(S(C)(=O)=O)C[C@H]4O)ncc3Cl)c3c2n1[C@@H](C)CO3 (single isomer, unassigned) [Isomer 2 with a retention time of 2.499 min in Example 2]
IC50 (CDK4/cyclin D1): 0.0015 µM
IC50 (CDK6/cyclin D3): 0.0091 µM

CC1COc2c(-c3nc(N[C@@H]4CCOC[C@H]4O)ncc3Cl)cc(F)c3nc(C(C)(C)O)n1c23 (mixture of isomers) [4f (racemate) in Example 4]
IC50 (CDK4/cyclin D1): 0.015 µM
IC50 (CDK6/cyclin D3): 0.171 µM

Cc1nc2c(F)cc(-c3nc(N[C@@H]4CCOC[C@H]4O)ncc3F)c3c2n1[C@@H](C)CO3 (single isomer, unassigned) [Isomer 2 with a retention time of 3.997 min in Example 1]
IC50 (CDK4/cyclin D1): 0.011 µM
IC50 (CDK6/cyclin D3): 0.301 µM

Cc1nc2c(F)cc(-c3nc(N[C@@H]4CCOC[C@H]4O)ncc3F)c3c2n1[C@@H](C)CO3 (single isomer, unassigned) [Isomer 1 with a retention time of 2.903 min in Example 1]
IC50 (CDK4/cyclin D1): 0.026 µM
IC50 (CDK6/cyclin D3): > 1 µM

C[C@H]1COc2c(-c3nc(N[C@@H]4CCOC[C@H]4O)ncc3Cl)cc(F)c3nc(C(C)(C)O)n1c23 (single isomer, unassigned) [Isomer 1 with a retention time of 2.078 min in Example 4]
Induction fold (human PXR; [1]): 0.87
Induction fold (human PXR; compound concentration 10.0 μM): 1.43

Cc1nc2c(F)cc(-c3nc(N[C@@H]4CCOC[C@H]4O)ncc3Cl)c3c2n1[C@@H](C)CO3 (single isomer, unassigned) [Isomer 1 with a retention time of 3.518 min in Example 3]
IC50 (CDK4/cyclin D1): 0.015 µM
IC50 (CDK6/cyclin D3): 0.064 µM

Cc1nc2c(F)cc(-c3nc(N[C@@H]4CCN(S(C)(=O)=O)C[C@H]4O)ncc3Cl)c3c2n1[C@@H](C)CO3 (single isomer, unassigned) [Isomer 1 with a retention time of 2.094 min in Example 2]
IC50 (CDK4/cyclin D1): 0.0025 µM
IC50 (CDK6/cyclin D3): 0.039 µM
